Values after ≈ are worked out from the molar mass of the structure shown. Active and inactive are the calls of the source. The calls are words filed in the database; no cut-off is given here.
What was measured:
Staphylococcus aureus [1] = test: Antibacterial activity against Staphylococcus aureus NCIMB 12702 after 24 hrs by serial dilution method; assay type: functional; conditions: Staphylococcus aureus, NCIMB 12702, 24 h
[2] = Toxicity in sixth development stage of Galleria mellonella larvae assessed as survival rate at 100 ug/ml after 24 hrs; assay type: organism-based; conditions: in vivo
[3] = Toxicity in sixth development stage of Galleria mellonella larvae assessed as survival rate at 10 ug/ml after 72 hrs; assay type: organism-based; conditions: in vivo
[4] = Toxicity in sixth development stage of Galleria mellonella larvae assessed as survival rate at 1000 ug/ml after 48 hrs; assay type: organism-based; conditions: in vivo
[5] = Toxicity in sixth development stage of Galleria mellonella larvae assessed as survival rate at 1000 ug/ml after 24 hrs; assay type: organism-based; conditions: in vivo
[6] = Toxicity in sixth development stage of Galleria mellonella larvae assessed as survival rate at 10 ug/ml after 24 hrs; assay type: organism-based; conditions: in vivo
[7] = Toxicity in sixth development stage of Galleria mellonella larvae assessed as survival rate at 1000 ug/ml after 72 hrs; assay type: organism-based; conditions: in vivo
Pseudomonas aeruginosa = test: Antibacterial activity against Pseudomonas aeruginosa ATCC 10145 after 24 hrs by serial dilution method; assay type: functional, organism-based
Staphylococcus aureus [8] = test: Antibacterial activity against methicillin-resistant Staphylococcus aureus after 24 hrs by serial dilution method; assay type: functional
[9] = Toxicity in sixth development stage of Galleria mellonella larvae assessed as survival rate at 50 ug/ml after 72 hrs; assay type: organism-based; conditions: in vivo
[10] = Toxicity in sixth development stage of Galleria mellonella larvae assessed as survival rate at 100 ug/ml after 72 hrs; assay type: organism-based; conditions: in vivo
[11] = Toxicity in sixth development stage of Galleria mellonella larvae assessed as survival rate at 1 ug/ml after 72 hrs; assay type: organism-based; conditions: in vivo
[12] = Toxicity in sixth development stage of Galleria mellonella larvae assessed as survival rate at 1 ug/ml after 48 hrs; assay type: organism-based; conditions: in vivo
[13] = Toxicity in sixth development stage of Galleria mellonella larvae assessed as survival rate at 50 ug/ml after 24 hrs; assay type: organism-based; conditions: in vivo
Escherichia coli = test: Antibacterial activity against Escherichia coli NCIMB 9485 after 24 hrs by serial dilution method; assay type: functional; conditions: NCIMB 9485, 24 h
[14] = Toxicity in sixth development stage of Galleria mellonella larvae assessed as survival rate at 50 ug/ml after 48 hrs; assay type: organism-based; conditions: in vivo
[15] = Toxicity in sixth development stage of Galleria mellonella larvae assessed as survival rate at 10 ug/ml after 48 hrs; assay type: organism-based; conditions: in vivo
Galleria mellonella = test: Toxicity in sixth development stage of Galleria mellonella larvae assessed as larvae pupation at 1 to 1000 ug/ml after 7 days relative to control; assay type: organism-based; conditions: in vivo, 168 h
[16] = Toxicity in sixth development stage of Galleria mellonella larvae assessed as survival rate at 1 ug/ml after 24 hrs; assay type: organism-based; conditions: in vivo
[17] = Toxicity in sixth development stage of Galleria mellonella larvae assessed as survival rate at 100 ug/ml after 48 hrs; assay type: organism-based; conditions: in vivo

SMILES | MIC50 (Staphylococcus aureus [1]) | MIC80 (Staphylococcus aureus [1]) | MIC90 (Staphylococcus aureus [1]) | survival at 24 h [2] | survival at 72 h [3] | survival at 48 h [4] | survival at 24 h [5] | survival at 24 h [6] | survival at 72 h [7] | MIC (Pseudomonas aeruginosa) | MIC50 (Staphylococcus aureus [8]) | MIC90 (Staphylococcus aureus [8]) | survival at 72 h [9] | survival at 72 h [10] | survival at 72 h [11] | survival at 48 h [12] | survival at 24 h [13] | MIC50 (Escherichia coli) | MIC80 (Escherichia coli) | MIC90 (Escherichia coli) | other results
C=C[C@H]1CN2CC[C@H]1C[C@H]2[C@@H](NC(=S)Nc1cc(C(F)(F)F)cc(C(F)(F)F)c1)c1ccnc2ccc(OC)cc12 | 3.95 µM (≈ 2.35 µg/mL) | 7.9 µM (≈ 4.7 µg/mL) | 10.5 µM (≈ 6.26 µg/mL) | 100% | 100% | 100% | 100% | 100% | 100% | inactive | 11.4 µM (≈ 6.8 µg/mL) | 17.7 µM (≈ 10.5 µg/mL) | 100% | 100% | 97% | 97% | 100% | 2.63 µM (≈ 1.56 µg/mL) | 5.26 µM (≈ 3.13 µg/mL) | 7.9 µM (≈ 4.7 µg/mL) | survival at 48 h [14]: 100%; survival at 48 h [15]: 100%; Activity (Galleria mellonella): Non-toxic; survival at 24 h [16]: 100%; survival at 48 h [17]: 100%
C=C[C@H]1CN2CC[C@H]1C[C@H]2CNC(=S)Nc1cc(C(F)(F)F)cc(C(F)(F)F)c1 | 42.9 µM (≈ 18.8 µg/mL) | 85.8 µM (≈ 37.5 µg/mL) | 85.8 µM (≈ 37.5 µg/mL) | 100% | 100% | 100% | 100% | 100% | 100% | inactive | 20.7 µM (≈ 9.07 µg/mL) | 31.4 µM (≈ 13.8 µg/mL) | 100% | 100% | 100% | 100% | 100% | 42.9 µM (≈ 18.8 µg/mL) | 85.8 µM (≈ 37.5 µg/mL) | 85.8 µM (≈ 37.5 µg/mL) | survival at 48 h [14]: 100%; survival at 48 h [15]: 100%; Activity (Galleria mellonella): Non-toxic; survival at 24 h [16]: 100%; survival at 48 h [17]: 100%
CCN(CC)CCNC(=S)Nc1cc(C(F)(F)F)cc(C(F)(F)F)c1 | 96.9 µM (≈ 37.5 µg/mL) | 129 µM (≈ 50 µg/mL) | 194 µM (≈ 75.1 µg/mL) | 100% | 100% | 100% | 100% | 100% | 100% | inactive | 13.5 µM (≈ 5.22 µg/mL) | 23.5 µM (≈ 9.11 µg/mL) | 100% | 100% | 100% | 100% | 100% | 96.9 µM (≈ 37.5 µg/mL) | 129 µM (≈ 50 µg/mL) | 194 µM (≈ 75.1 µg/mL) | survival at 48 h [14]: 100%; survival at 48 h [15]: 100%; Activity (Galleria mellonella): Non-toxic; survival at 24 h [16]: 100%; survival at 48 h [17]: 100%

Reference: ChEMBL document CHEMBL3745710, “Synthesis, antibacterial and anti-MRSA activity, in vivo toxicity and a structure-activity relationship study of a quinoline thiourea” (Bioorg Med Chem Lett, 2016)
